Laboratory results published in patent publication US20020049157A1, “Use of proteasome inhibitors for treating cancer, inflammation, autoimmune disease, graft rejection and septic shock” (priority 1998, published 2002).

Experiments:
Jurkat cells [1] = assay: DNA fragmentation (DNA laddering) in Jurkat cells; assay type: cell-based; settings: LAC 6 μM
Protocol: Tonsillar T cells (A, B, and D) and Jurkat cells (C and E) were treated with LAC (10 μM for T cells and 6 μM for Jurkat cells). LAC was added at the beginning of the culture or 40 h after T cell activation as indicated. The cells were harvested at the time points as shown. They were evaluated for their viability with trypan blue exclusion (A, B, and C), and for their mode of cell death according to DNA fragmentation (D and E).
Jurkat cells were treated with LAC (6 μM) in the absence or presence of different concentrations of zVAD.fms (0.4 μM to 33.3 μM) for 6 h. The cells were harvested and their DNA was analyzed by a DNA fragmentation assay according to DNA laddering.
We next employed DNA laddering to study the mode of cell death caused by LAC, and the result of this experiment also reflected the degree of cell death after different treatments. […] After 24 h of LAC treatment, the ladders became less discrete, and this probably reflected further DNA breakdown.
The assay was performed according to a protocol described by Liu et al (Liu et al., 1997, Cell. 89:175) with some modifications. Briefly, 2-6 million cells were re-suspended in 50 μl PBS followed by 300 μl lysis buffer (100 mM Tris-HCl, pH 8.0, 5 mM EDTA, 0.2 M NaCl. 0.2% w/v SDS, and 0.2 mg/ml proteinase K). After overnight incubation at 37° C., 350 μl of 3M NaCl was added to the mixture and cell debris was removed by centrifugation at 13000 g for 20 min at room temperature. DNA in the supernatant was precipitated with an equal volume of 100% ethanol. The pellet was washed with cold 70% ethanol and then dissolved in 20 μl of TE containing 0.2 mg/ml RNase A. After incubation at 37° C. for 2 h, the DNA was resolved on 2% agarose gel and visualized with ethidium bromide staining.

Tonsillar T cells = assay: Electron microscopy of T cells; assay type: cell-based, human; settings: LAC 10 μM, 24 h
Protocol: A and B: Morphology of resting T cells treated with LAC. Tonsillar T cells were culture in the absence (A) or presence (B) of LAC ([…]) for 24 h, and the cells were examined by EM.
C and D: Morphology of activated T cells treated with LAC. Tonsillar T cells were first activated with PHA (2 μg/ml) for 40 h. The cells were then cultured in the absence (C) or presence (D) of LAC (10 μM) for additional 24h, and were examined with EM.
Electron microscopy was also employed to examine the mode of cell death induced by LAC. The resting T cells (cells cultured in medium, FIG. 3A), activated T cells (40 h after PHA activation, FIG. 3C), and Jurkat cells (FIG. 3E) were all healthy looking. […] The resting T cells treated with LAC (10 μM) for 24 h were still healthy (FIG. 3B).
T cells and Jurkat cells were examined by electron microscopy as described by Tsao and Duguid (Tsao et al., 1987, Exp. Cell Res. 168:365).

cyclin A = assay: Immunoblotting of cyclin A level in T cells; assay type: cell-based, human; settings: PHA plus hydroxyurea block, released; LAC added at release
Protocol: Tonsillar T cells were stimulated with PHA (2 μg/ml) for 40 h in the presence of hydroxyurea (1 mM), and these cells were blocked at the G1/S boundary (G1 block). The synchronization was released by washing out hydroxyurea, and the cells were recultured in medium containing 2 μg/ml PHA in the absence or presence of LAC ([…], added once at the time of the release). The cells were harvested at 6 h and 22 h post the G1/S block. The cell lysates (40 μg/sample) were resolved in 10% SDS-PAGE, and transferred to PVDF membranes. The membranes were hybridized with rabbit-anti-Cyclin E or anticyclin A antisera followed by ^125I-protein A. The Cyclin E level (FIG. 8A) and cyclin A level (FIG. 8B) of representative experiments are shown. Similar results were obtained in a total of three independent experiments.
The G1/S phase synchronized T cells represented activated cells, and prolonged exposure to LAC would cause significant cell death.
Tonsillar T cells were cultured in the presence of 2 μg/ml PHA and 1 mM hydroxyurea for 40 h. The cells thus treated were synchronized at the G1/S phase. […]
Immunoblotting was employed to evaluate the levels of Cyclin E, cyclin A, p21^Cip1 and p27^Kip1. […] The cleared lysates were quantitated for protein concentrations. […] The signals on the membrane were detected by [^125I]-protein A followed by autoradiography.

[2] = tested on: chymotrypsin-like activity in the lysate of PBMC; assay: LAC-inhibitable chymotrypsin-like activity in PBMC lysates; assay type: biochemical, human; settings: 10 μM LAC
Protocol: Human PBMC were cultured in the absence or presence of 2 μg/ml PHA or 10 nM RAPA for 16 h-70 h as indicated. The cells were then harvested, and the chymotrypsin-like activity of whole cells lysates was assayed in the absence or presence of 20 μM proteasome inhibitor LAC. The data are presented as arbitrary units of fluorescence intensity per 20 μg lysate protein. The experiments were repeated three times and a representative one is shown. Samples are in duplicate and the mean±SD is shown. (A) Total chymotrypsin-like activity in the lysate of PBMC. (B) Lactacystin-inhibitable chymotrypsin-like activity in the lysate of 70 h PBMC. […] LAC was always added to the lysates during the proteinase assay 15 min before the addition of the substrate. The solid bars represent the activity in the presence of LAC. The net proteasome activities are calculated as the total activity minus the remaining activity after the LAC addition.
PBMC were cultured with or without PHA (2 μg/ml) and RAPA (10 nM). After 16 h-70 h, the cells were harvested and sonicated in 300 μl PBS on ice for 40 sec. Twenty micrograms of protein per sample from the cleared lysates were supplemented to 100 μl with 0.1 M Tris buffer (pH 8.2). A proteasome-specific inhibitor lactacystin (Omura et al., 1991, supra; Fentenay et al., 1995, supra) was added at a final concentration of 10 nM in some samples as indicated. The samples were incubated on ice for 15 min, and fluorogenic chymotrypsin substrate sLLVY-MCA was then added at a final concentration of 10 nM. The 20S proteasome, which was prepared as previously described (Friguet et al, 1994, J. Biol. Chem. 269:21639), was used as a positive control in place of cell lysates. The samples were incubated at 37° C. for 15 min and the reaction was terminated by adding 4 μl 2.5 M HCl. The samples were then diluted to 2 ml with 0.1 M Tris pH8.2, and measured for their fluorescent intensity by a PTI fluorometer (Photo Technology International, South Brunswick, N.J.). The excitation wavelength was 380 nm, and the emission wavelength 440 mn.

Namalwa = assay: Quantitative filter elution assay of DNA fragmentation in Namalwa cells; assay type: cell-based, human; settings: lactacystin 0.75-10 μM; 24-96 h
Protocol: A human B cell line Namalwa was stably transfected with an anti-apoptotic Bcl-2 family member Bcl-xL, and its sensitivity to the proteasome inhibitor-induced apoptosis tested by the quantitative filter elution assay (Schmitt et al., 1998, Exp. Cell Res. 240:107), which detects DNA fragmentation during apoptosis. The wild type Namalwa and transfected Namalwa cells overexpressing Bcl-xL were pulsed with ^14C-thymidine for 24 h, and then treated with different concentrations of lactacystin (0.75 μM, 1.5 μM, 3 μM, 6 μM and 10 μM). The cells were harvested at different time intervals (24-96 h), and DNA fragmentation measured.

Jurkat cells [3] = assay: Proliferation of Jurkat cells; assay type: cell-based; settings: data not shown

CC(=O)N[C@@H](CSC(=O)[C@]1([C@@H](O)C(C)C)NC(=O)[C@H](C)[C@@H]1O)C(=O)O [LAC, lactacystin]
onset of DNA fragmentation (Jurkat cells [1]): detected as early as 6 h | DNA fragmentation (Jurkat cells [1]; after 16 h): more prominent | nuclear condensation by electron microscopy (Tonsillar T cells; activated T cells (40 h after PHA)): frequently observed | morphology by electron microscopy (Tonsillar T cells; resting T cells): still healthy | cyclin A level during the S phase (cyclin A): did not affect the level | inhibition of total chymotrypsin-like activity in the lysate ([2]; 70 h lysate from PHA plus RAPA-treated PBMC): 86.7% | inhibition of total chymotrypsin-like activity in the lysate ([2]; 70 h lysate from PHA-treated PBMC): 76.7% | inhibition of total chymotrypsin-like activity in the lysate ([2]; 70 h lysate from medium-treated PBMC): 73.4% | DNA fragmentation in Bcl-xL transfected vs wild type Namalwa cells (Namalwa): demonstrably less DNA fragmentation | proliferation of Jurkat cells (Jurkat cells [3]): potently inhibited
